Reference: ChEMBL document CHEMBL3044586, “Design, synthesis, and anticonvulsant screening of some substituted piperazine and aniline derivatives of 5-phenyl-oxazolidin-2,4-diones and 5,5-diphenylimidazolidin-2,4 diones” (Med Chem Res, 2012)
Activity calls are given as the source filed them. The calls are words filed in the database; no cut-off is given here.

Experiments:
Rattus norvegicus [1] = test: Postsynaptic agonist activity at 5HT1A receptor in Rattus norvegicus Wistar (rat) assessed as increase in lower lip retraction at 10 to 20 mg/kg, ip measured after 15 min; assay type: functional, organism-based
Rattus norvegicus [2] = test: Presynaptic agonist activity at 5HT1A receptor in Rattus norvegicus Wistar (rat) assessed as change in rectal temperature at 20 mg/kg, ip measured after 90 min (reference value: -0.2 +/- 0.1 degC); assay type: functional, organism-based; design: dose 20 mg/kg
Rattus norvegicus [3] = test: Presynaptic agonist activity at 5HT1A receptor in Rattus norvegicus Wistar (rat) assessed as change in rectal temperature at 20 mg/kg, ip measured after 30 min (reference value: -0.1 +/- 0.1 degC); assay type: functional, organism-based; design: dose 20 mg/kg
Mus musculus [4] = test: Neurotoxicity against Mus musculus Swiss albino (mouse) assessed as inability to maintain equilibrium on rod at 30 to 300 mg/kg, ip measured after 0.5 hr by rotarod test; assay type: toxicity, organism-based; design: dose 30-300 mg/kg, route intraperitoneal; settings: in vivo
Rattus norvegicus [5] = test: Anticonvulsant activity in Rattus norvegicus Wistar (rat) assessed as reduction in maximal electroshock-induced seizures at 30 mg/kg, po measured after 4 hr; assay type: functional, organism-based; design: dose 30 mg/kg
Rattus norvegicus [6] = test: Presynaptic agonist activity at 5HT1A receptor in Rattus norvegicus Wistar (rat) assessed as change in rectal temperature at 10 mg/kg, ip measured after 120 min (reference value: 0.0 +/- 0.1 degC); assay type: functional, organism-based; design: dose 10 mg/kg
Rattus norvegicus [7] = test: Anticonvulsant activity in Rattus norvegicus Wistar (rat) assessed as reduction in maximal electroshock-induced seizures at 30 mg/kg, po measured after 0.5 hr; assay type: functional, organism-based; design: dose 30 mg/kg
Rattus norvegicus [8] = test: Presynaptic agonist activity at 5HT1A receptor in Rattus norvegicus Wistar (rat) assessed as change in rectal temperature at 10 mg/kg, ip measured after 90 min (reference value: -0.2 +/- 0.1 degC); assay type: functional, organism-based; design: dose 10 mg/kg
Rattus norvegicus [9] = test: Presynaptic agonist activity at 5HT1A receptor in Rattus norvegicus Wistar (rat) assessed as change in rectal temperature at 10 mg/kg, ip measured after 30 min (reference value: -0.1 +/- 0.1 degC); assay type: functional, organism-based; design: dose 10 mg/kg
Rattus norvegicus [10] = test: Neurotoxicity against Rattus norvegicus Wistar (rat) assessed as inability to maintain equilibrium on rod at 30 mg/kg, po measured after 4 hr by rotarod test; assay type: toxicity, organism-based; design: dose 30 mg/kg, route oral; settings: in vivo
Mus musculus [11] = test: Binding affinity to 5HT2A receptor in ip dosed Mus musculus Swiss albino (mouse) assessed as effect on +/-DOI-induced head twitching administered 60 min prior to +/-DOI-challenge measured for 20 min; assay type: functional, organism-based
Rattus norvegicus [12] = test: Presynaptic agonist activity at 5HT1A receptor in Rattus norvegicus Wistar (rat) assessed as change in rectal temperature at 20 mg/kg, ip measured after 120 min (reference value: 0.0 +/- 0.1 degC); assay type: functional, organism-based; design: dose 20 mg/kg
Mus musculus [13] = test: Neurotoxicity against Mus musculus Swiss albino (mouse) assessed as inability to maintain equilibrium on rod at 30 to 300 mg/kg, ip measured after 4 hr by rotarod test; assay type: toxicity, organism-based; design: dose 30-300 mg/kg, route intraperitoneal; settings: in vivo
Rattus norvegicus [14] = test: Neurotoxicity against Rattus norvegicus Wistar (rat) assessed as inability to maintain equilibrium on rod at 30 mg/kg, po measured after 0.5 hr by rotarod test; assay type: toxicity, organism-based; design: dose 30 mg/kg, route oral; settings: in vivo
Mus musculus [15] = test: Anticonvulsant activity in Mus musculus Swiss albino (mouse) assessed as reduction in maximal electroshock-induced seizure at 30 mg/kg, ip measured after 4 hr; assay type: functional, organism-based; design: dose 30 mg/kg
Mus musculus [16] = test: Anticonvulsant activity in Mus musculus Swiss albino (mouse) assessed as reduction in maximal electroshock-induced seizure at 30 to 300 mg/kg, ip measured after 0.5 hr; assay type: functional, organism-based
Rattus norvegicus [17] = test: Presynaptic agonist activity at 5HT1A receptor in Rattus norvegicus Wistar (rat) assessed as change in rectal temperature at 10 mg/kg, ip measured after 60 min (reference value: 0.0 +/- 0.1 degC); assay type: functional, organism-based; design: dose 10 mg/kg
Rattus norvegicus [18] = test: Presynaptic agonist activity at 5HT1A receptor in Rattus norvegicus Wistar (rat) assessed as change in rectal temperature at 20 mg/kg, ip measured after 60 min (reference value: 0.0 +/- 0.1 degC); assay type: functional, organism-based; design: dose 20 mg/kg
Rattus norvegicus [19] = test: Presynaptic antagonist activity at 5HT1A receptor in Rattus norvegicus Wistar (rat) assessed as change in rectal temperature at 0.1 mg/kg, sc measured after 90 min (reference value: -0.2 +/- 0.1 degC); assay type: functional, organism-based; design: dose 0.1 mg/kg
Rattus norvegicus [20] = test: Antagonist activity at 5HT1A receptor in Rattus norvegicus Wistar (rat) assessed as change in rectal temperature at 0.1 mg/kg, sc measured after 30 min (reference value: -0.1 +/- 0.1 degC); assay type: functional, organism-based; design: dose 0.1 mg/kg
Rattus norvegicus [21] = test: Postsynaptic antagonist activity at 5HT1A receptor in Rattus norvegicus Wistar (rat) assessed as inhibition of 8-OH-DPAT-induced lower lip retraction at 0.1 mg/kg, sc administered 45 min prior to 8-OH-DPAT-challenge measured after 15 min; assay type: functional, organism-based; design: dose 0.1 mg/kg
Rattus norvegicus [22] = test: Presynaptic antagonist activity at 5HT1A receptor in Rattus norvegicus Wistar (rat) assessed as change in rectal temperature at 0.1 mg/kg, sc measured after 60 min (reference value: 0.0 +/- 0.1 degC); assay type: functional, organism-based; design: dose 0.1 mg/kg
Rattus norvegicus [23] = test: Presynaptic antagonist activity at 5HT1A receptor in Rattus norvegicus Wistar (rat) assessed as change in rectal temperature at 0.1 mg/kg, sc measured after 120 min (reference value: 0.0 +/- 0.1 degC); assay type: functional, organism-based; design: dose 0.1 mg/kg
Mus musculus [24] = test: Anticonvulsant activity in Mus musculus Swiss albino (mouse) assessed as reduction in maximal electroshock-induced seizure at 300 mg/kg, ip measured after 4 hr; assay type: functional, organism-based; design: dose 300 mg/kg
Mus musculus [25] = test: Neurotoxicity against Mus musculus Swiss albino (mouse) assessed as inability to maintain equilibrium on rod at 300 mg/kg, ip measured after 4 hr by rotarod test; assay type: toxicity, organism-based; design: dose 300 mg/kg, route intraperitoneal; settings: in vivo
Mus musculus [26] = test: Neurotoxicity against Mus musculus Swiss albino (mouse) assessed as inability to maintain equilibrium on rod at 100 mg/kg, ip measured after 0.5 hr by rotarod test; assay type: toxicity, organism-based; design: dose 100 mg/kg, route intraperitoneal; settings: in vivo
Mus musculus [27] = test: Anticonvulsant activity in Mus musculus Swiss albino (mouse) assessed as reduction in maximal electroshock-induced seizure at 100 mg/kg, ip measured after 4 hr; assay type: functional, organism-based; design: dose 100 mg/kg
Mus musculus [28] = test: Anticonvulsant activity in Mus musculus Swiss albino (mouse) assessed as reduction in maximal electroshock-induced seizure at 100 mg/kg, ip measured after 0.5 hr; assay type: functional, organism-based; design: dose 100 mg/kg
Mus musculus [29] = test: Anticonvulsant activity in Mus musculus Swiss albino (mouse) assessed as reduction in maximal electroshock-induced seizure at 300 mg/kg, ip measured after 0.5 hr; assay type: functional, organism-based; design: dose 300 mg/kg
Mus musculus [30] = test: Neurotoxicity against Mus musculus Swiss albino (mouse) assessed as inability to maintain equilibrium on rod at 100 mg/kg, ip measured after 4 hr by rotarod test; assay type: toxicity, organism-based; design: dose 100 mg/kg, route intraperitoneal; settings: in vivo
Mus musculus [31] = test: Anticonvulsant activity in Mus musculus Swiss albino (mouse) assessed as reduction in maximal electroshock-induced seizure at 30 mg/kg, ip measured after 0.5 hr; assay type: functional, organism-based; design: dose 30 mg/kg
Rattus norvegicus [32] = test: Postsynaptic antagonist activity at 5HT1A receptor in Rattus norvegicus Wistar (rat) assessed as inhibition of 8-OH-DPAT-induced lower lip retraction at 10 to 20 mg/kg, ip administered 45 min prior to 8-OH-DPAT-challenge measured after 15 min; assay type: functional, organism-based
Mus musculus [33] = test: Antagonist activity at 5HT2A receptor in ip dosed Mus musculus Swiss albino (mouse) assessed as inhibition of +/-DOI-induced head twitching administered 60 min prior to +/-DOI-challenge measured for 20 min; assay type: functional; settings: read-out: ID50 (the source's name)

| SMILES | deltaT (Rattus norvegicus [2]) [°C] | deltaT (Rattus norvegicus [3]) [°C] | Activity (Mus musculus [4]) | Activity (Rattus norvegicus [5]) | deltaT (Rattus norvegicus [6]) [°C] | Activity (Rattus norvegicus [7]) | deltaT (Rattus norvegicus [8]) [°C] | deltaT (Rattus norvegicus [9]) [°C] | Activity (Rattus norvegicus [10]) | Activity (Mus musculus [11]) | deltaT (Rattus norvegicus [12]) [°C] | Activity (Mus musculus [13]) | Activity (Rattus norvegicus [14]) | Activity (Mus musculus [15]) | Activity (Mus musculus [16]) | deltaT (Rattus norvegicus [17]) [°C] | deltaT (Rattus norvegicus [18]) [°C] | Activity (Mus musculus [28]) | inhibition (Rattus norvegicus [32]) | also measured |
| --- | --- | --- | --- | --- | --- | --- | --- | --- | --- | --- | --- | --- | --- | --- | --- | --- | --- | --- | --- | --- |
| O=C1NC(c2ccccc2)(c2ccccc2)C(=O)N1CCN1CCN(c2ccc(F)cc2)CC1 | -1.6 | -1.7 | Non-toxic | Active | -0.8 | inactive | -0.7 | -0.9 | Non-toxic | inactive | -1.7 | Non-toxic | Non-toxic | Active | inactive | -0.7 | -1.6 | – | – | Activity (Rattus norvegicus [1]): Active |
| COc1ccccc1N1CCN(CCN(C(=O)C2CCCCC2)c2ccccn2)CC1 | – | – | – | – | – | – | – | – | – | – | – | – | – | – | – | – | – | – | – | deltaT (Rattus norvegicus [19]): 0.1 °C; deltaT (Rattus norvegicus [20]): 0.2 °C; inhibition (Rattus norvegicus [21]): Active; deltaT (Rattus norvegicus [22]): 0.2 °C; deltaT (Rattus norvegicus [23]): 0.2 °C |
| Cc1ccc(N2CCN(CCN3C(=O)NC(c4ccccc4)(c4ccccc4)C3=O)CC2)cc1 | – | – | – | – | – | – | – | – | – | – | – | – | – | – | inactive | – | – | – | – | Activity (Mus musculus [24]): Active; Activity (Mus musculus [25]): Toxic; Activity (Mus musculus [26]): Toxic |
| COc1ccc(NCCN2C(=O)NC(c3ccccc3)(c3ccccc3)C2=O)cc1 | -1.8 | -1.2 | Non-toxic | inactive | -0.6 | inactive | -0.8 | -0.5 | Non-toxic | inactive | -1.3 | Non-toxic | Non-toxic | – | – | -0.6 | -1.5 | Active | – | Activity (Rattus norvegicus [1]): Active; Activity (Mus musculus [27]): Active; Activity (Mus musculus [29]): Active |
| O=C1NC(=O)C(c2ccccc2)(c2ccccc2)N1 [PHENYTOIN] | – | – | – | Active | – | Active | – | – | Non-toxic | – | – | – | Non-toxic | Active | – | – | – | – | – | Activity (Mus musculus [30]): Toxic; Activity (Mus musculus [31]): Active; Activity (Mus musculus [26]): Toxic |
| O=C1OC(c2ccccc2)C(=O)N1CCN1CCN(c2ccc(F)cc2)CC1 (stereo not given) | -1.4 | -1.5 | Non-toxic | inactive | -0.5 | inactive | -0.5 | -0.6 | Non-toxic | inactive | -1.4 | Non-toxic | Non-toxic | – | inactive | -0.4 | -1.4 | – | Active | Activity (Mus musculus [27]): Active |
| O=C1OC(c2ccccc2)C(=O)N1CCNc1ccc(Cl)cc1 (stereo not given) | -1.5 | -1.2 | Non-toxic | Active | -0.5 | Active | -0.7 | -0.2 | Non-toxic | – | -1.3 | Non-toxic | Non-toxic | Active | – | -0.5 | -1.3 | Active | Active | ED50 (Mus musculus [33]): 8 mg/kg |
| O=C1NC(c2ccccc2)(c2ccccc2)C(=O)N1CCNc1ccc(F)cc1 | -2.9 | -2.5 | Non-toxic | Active | -0.7 | Active | -0.9 | -0.5 | Non-toxic | inactive | -1.5 | Non-toxic | Non-toxic | Active | – | -0.7 | -2.7 | Active | – | Activity (Rattus norvegicus [1]): Active |
| COc1ccc(NCCN2C(=O)OC(c3ccccc3)C2=O)cc1 (stereo not given) | -1.5 | -1.1 | Non-toxic | inactive | -0.7 | inactive | -0.8 | -0.5 | Non-toxic | inactive | -1.3 | Non-toxic | Non-toxic | – | inactive | -0.8 | -1.5 | – | Active | Activity (Mus musculus [27]): Active |
| O=C1OC(c2ccccc2)C(=O)N1CCNc1ccc(O)cc1 (stereo not given) | -1.6 | -1 | Non-toxic | Active | -0.6 | Active | -0.7 | -0.4 | Non-toxic | – | -1.1 | Non-toxic | Non-toxic | Active | – | -0.6 | -1.2 | Active | Active | ED50 (Mus musculus [33]): 11 mg/kg |
| O=C(c1ccc(F)cc1)C1CCN(CCn2c(=O)[nH]c3ccccc3c2=O)CC1 [KETANSERIN] | – | – | – | – | – | – | – | – | – | – | – | – | – | – | – | – | – | – | – | ED50 (Mus musculus [33]): 0.12 mg/kg |
